# Results from patent publication US10213433B2 (AbbVie Inc., priority 2010, dated 2019).
# Molecular target: Bcl-2 protein (Homo sapiens (Human), UniProt P10415)
# Assay: Bcl-2 binding TR-FRET (Time-Resolved Fluorescence-Resonance-Energy-Transfer) assay
# Details: inhibition constant for binding to Bcl-2 protein
# Excerpt: The smaller the Ki value, the greater is the binding affinity.
# Chain of Bcl-2 protein (P10415 whole entry): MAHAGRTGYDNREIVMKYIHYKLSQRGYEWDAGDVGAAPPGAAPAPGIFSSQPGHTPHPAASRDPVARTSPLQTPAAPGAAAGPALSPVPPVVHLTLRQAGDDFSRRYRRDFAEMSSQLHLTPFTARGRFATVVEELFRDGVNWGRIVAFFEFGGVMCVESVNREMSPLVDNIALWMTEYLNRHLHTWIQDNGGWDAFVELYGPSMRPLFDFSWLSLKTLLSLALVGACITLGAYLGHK
row,Compound,Ki [nM]
1,"COCCOCCN1CCOC(CNc2ccc(S(=O)(=O)NC(=O)c3ccc(N4CCN(CC5=C(c6ccc(Cl)cc6)CC(C)(C)CC5)CC4)cc3Oc3cnc4[nH]ccc4c3)cc2[N+](=O)[O-])C1 (stereo not drawn) [Compound 213, 4-(4-{[2-(4-chlorophenyl)-4,4-dimethylcyclohex-1-en-1-yl]methyl}piperazin-1-yl)-N-({4-[({4-[2-(2-methoxyethoxyl)ethyl]morpholin-2-yl}methyl)amino]-3-nitrophenyl}sulfonyl)-2-(1H-pyrrolo[2,3-b]pyridin-5-yloxy)benzamide]",< 0.01
2,"CC1(C)CCC(CN2CCN(c3ccc(C(=O)NS(=O)(=O)c4ccc(NCC5CN(CC#N)CCO5)c([N+](=O)[O-])c4)c(Oc4cnc5[nH]ccc5c4)c3)CC2)=C(c2ccc(Cl)cc2)C1 (stereo not drawn) [Compound 214, 4-(4-{[2-(4-chlorophenyl)-4,4-dimethylcyclohex-1-en-1-yl]methyl}piperazin-1-yl)-N-{[4-({[4-(cyanomethyl)morpholin-2-yl]methyl}amino)-3-nitrophenyl]sulfonyl}-2-(1H-pyrrolo[2,3-b]pyridin-5-yloxy)benzamide]",< 0.01
3,"CN(C)CC(=O)N1CCOC(CNc2ccc(S(=O)(=O)NC(=O)c3ccc(N4CCN(CC5=C(c6ccc(Cl)cc6)CC(C)(C)CC5)CC4)cc3Oc3cnc4[nH]ccc4c3)cc2[N+](=O)[O-])C1 (stereo not drawn) [Compound 215, 4-(4-{[2-(4-chlorophenyl)-4,4-dimethylcyclohex-1-en-1-yl]methyl}piperazin-1-yl)-N-{[4-({[4-(N,N-dimethylglycyl)morpholin-2-yl]methyl}amino)-3-nitrophenyl]sulfonyl}-2-(1H-pyrrolo[2,3-b]pyridin-5-yloxy)benzamide]",< 0.01
4,"CC1(C)CCC(CN2CCN(c3ccc(C(=O)NS(=O)(=O)c4ccc(NCC5CN(CC(=O)O)CCO5)c([N+](=O)[O-])c4)c(Oc4cnc5[nH]ccc5c4)c3)CC2)=C(c2ccc(Cl)cc2)C1 (stereo not drawn) [Compound 216, (2-{[(4-{[4-(4-{[2-(4-chlorophenyl)-4,4-dimethylcyclohex-1-en-1-yl]methyl}piperazin-1-yl)-2-(1H-pyrrolo[2,3-b]pyridin-5-yloxy)benzoyl]sulfamoyl}-2-nitrophenyl)amino]methyl}morpholin-4-yl)acetic acid]",< 0.01
5,"CC1(C)CCC(CN2CCN(c3ccc(C(=O)NS(=O)(=O)c4ccc(NCC5CN(C6COC6)CCO5)c([N+](=O)[O-])c4)c(Oc4cnc5[nH]ccc5c4)c3)CC2)=C(c2ccc(Cl)cc2)C1 (stereo not drawn) [Compound 217, 4-(4-{[2-(4-chlorophenyl)-4,4-dimethylcyclohex-1-en-1-yl]methyl}piperazin-1-yl)-N-{[3-nitro-4-({[4-(oxetan-3-yl)morpholin-2-yl]methyl}amino)phenyl]sulfonyl}-2-(1H-pyrrolo[2,3-b]pyridin-5-yloxy)benzamide]",< 0.01
6,"CC1(C)CCC(CN2CCN(c3ccc(C(=O)NS(=O)(=O)c4ccc(NC5CCN(C(C)(C)C)CC5)c([N+](=O)[O-])c4)c(Oc4cnc5[nH]ccc5c4)c3)CC2)=C(c2ccc(Cl)cc2)C1 [Compound 227, N-({4-[(1-tert-butylpiperidin-4-yl)amino]-3-nitrophenyl}sulfonyl)-4-(4-{[2-(4-chlorophenyl)-4,4-dimethylcyclohex-1-en-1-yl]methyl}piperazin-1-yl)-2-(1H-pyrrolo[2,3-b]pyridin-5-yloxy)benzamide]",< 0.01
7,"CC1(C)CCC(CN2CCN(c3ccc(C(=O)NS(=O)(=O)c4ccc(N[C@@H]5CCOC5)c([N+](=O)[O-])c4)c(Oc4cnc5[nH]ccc5c4)c3)CC2)=C(c2ccc(Cl)cc2)C1 [Compound 238, 4-(4-{[2-(4-chlorophenyl)-4,4-dimethylcyclohex-1-en-1-yl]methyl}piperazin-1-yl)-N-({3-nitro-4-[(3R)-tetrahydrofuran-3-ylamino]phenyl}sulfonyl)-2-(1H-pyrrolo[2,3-b]pyridin-5-yloxy)benzamide]",< 0.01
8,"CC1(C)CCC(CN2CCN(c3ccc(C(=O)NS(=O)(=O)c4ccc(NC5CCN(C(C)(C)C)CC5)c(S(=O)(=O)C(F)(F)F)c4)c(Oc4cnc5[nH]ccc5c4)c3)CC2)=C(c2ccc(Cl)cc2)C1 [Compound 240, N-({4-[(1-tert-butylpiperidin-4-yl)amino]-3-[(trifluoromethyl)sulfonyl]phenyl}sulfonyl)-4-(4-{[2-(4-chlorophenyl)-4,4-dimethylcyclohex-1-en-1-yl]methyl}piperazin-1-yl)-2-(1H-pyrrolo[2,3-b]pyridin-5-yloxy)benzamide]",< 0.01
9,"CC1(C)CCC(CN2CCN(c3ccc(C(=O)NS(=O)(=O)c4ccc(NCC5CN(C6COC6)CCO5)c(S(=O)(=O)C(F)(F)F)c4)c(Oc4cnc5[nH]ccc5c4)c3)CC2)=C(c2ccc(Cl)cc2)C1 (stereo not drawn) [Compound 241, 4-(4-{[2-(4-chlorophenyl)-4,4-dimethylcyclohex-1-en-1-yl]methyl}piperazin-1-yl)-N-({4-({[4-(oxetan-3-yl)morpholin-2-yl]methyl}amino)-3-[(trifluoromethyl)sulfonyl]phenyl}sulfonyl)-2-(1H-pyrrolo[2,3-b]pyridin-5-yloxy)benzamide]",< 0.01
10,"CC1(C)CCC(CN2CCN(c3ccc(C(=O)NS(=O)(=O)c4ccc(NCC5CN(C(CF)CF)CCO5)c([N+](=O)[O-])c4)c(Oc4cnc5[nH]ccc5c4)c3)CC2)=C(c2ccc(Cl)cc2)C1 (stereo not drawn) [Compound 252, 4-(4-{[2-(4-chlorophenyl)-4,4-dimethylcyclohex-1-en-1-yl]methyl}piperazin-1-yl)-N-{[4-({[4-(1,3-difluoropropan-2-yl)morpholin-2-yl]methyl}amino)-3-nitrophenyl]sulfonyl}-2-(1H-pyrrolo[2,3-b]pyridin-5-yloxy)benzamide]",< 0.01
11,"COCCOCCN1CC[C@@H](Nc2ccc(S(=O)(=O)NC(=O)c3ccc(N4CCN(CC5=C(c6ccc(Cl)cc6)CC(C)(C)CC5)CC4)cc3Oc3cnc4[nH]ccc4c3)cc2[N+](=O)[O-])C1 [Compound 254, 4-(4-{[2-(4-chlorophenyl)-4,4-dimethylcyclohex-1-en-1-yl]methyl}piperazin-1-yl)-N-{[4-({(3R)-1-[2-(2-methoxyethoxyl)ethyl]pyrrolidin-3-yl}amino)-3-nitrophenyl]sulfonyl}-2-(1H-pyrrolo[2,3-b]pyridin-5-yloxy)benzamide]",< 0.01
12,"CN(C)CC(=O)N1CC[C@@H](Nc2ccc(S(=O)(=O)NC(=O)c3ccc(N4CCN(CC5=C(c6ccc(Cl)cc6)CC(C)(C)CC5)CC4)cc3Oc3cnc4[nH]ccc4c3)cc2[N+](=O)[O-])C1 [Compound 255, 4-(4-{[2-(4-chlorophenyl)-4,4-dimethylcyclohex-1-en-1-yl]methyl}piperazin-1-yl)-N-[(4-{[(3R)-1-(N,N-dimethylglycyl)pyrrolidin-3-yl]amino}-3-nitrophenyl)sulfonyl]-2-(1H-pyrrolo[2,3-b]pyridin-5-yloxy)benzamide]",< 0.01
13,"CC1(C)CCC(CN2CCN(c3ccc(C(=O)NS(=O)(=O)c4ccc(NC5CN(C6COC6)C5)c([N+](=O)[O-])c4)c(Oc4cnc5[nH]ccc5c4)c3)CC2)=C(c2ccc(Cl)cc2)C1 [Compound 256, 4-(4-{[2-(4-chlorophenyl)-4,4-dimethylcyclohex-1-en-1-yl]methyl}piperazin-1-yl)-N-[(3-nitro-4-{[1-(oxetan-3-yl)azetidin-3-yl]amino}phenyl)sulfonyl]-2-(1H-pyrrolo[2,3-b]pyridin-5-yloxy)benzamide]",< 0.01
14,"CN(C)CC(=O)N1CCO[C@H](CNc2ccc(S(=O)(=O)NC(=O)c3ccc(N4CCN(CC5=C(c6ccc(Cl)cc6)CC(C)(C)CC5)CC4)cc3Oc3cnc4[nH]ccc4c3)cc2[N+](=O)[O-])C1 [Compound 258, 4-(4-{[2-(4-chlorophenyl)-4,4-dimethylcyclohex-1-en-1-yl]methyl}piperazin-1-yl)-N-{[4-({[(2R)-4-(N,N-dimethylglycyl)morpholin-2-yl]methyl}amino)-3-nitrophenyl]sulfonyl}-2-(1H-pyrrolo[2,3-b]pyridin-5-yloxy)benzamide]",< 0.01
15,"CN(C)CC(=O)N1CCO[C@@H](CNc2ccc(S(=O)(=O)NC(=O)c3ccc(N4CCN(CC5=C(c6ccc(Cl)cc6)CC(C)(C)CC5)CC4)cc3Oc3cnc4[nH]ccc4c3)cc2[N+](=O)[O-])C1 [Compound 259, 4-(4-{[2-(4-chlorophenyl)-4,4-dimethylcyclohex-1-en-1-yl]methyl}piperazin-1-yl)-N-{[4-({[(2S)-4-(N,N-dimethylglycyl)morpholin-2-yl]methyl}amino)-3-nitrophenyl]sulfonyl}-2-(1H-pyrrolo[2,3-b]pyridin-5-yloxy)benzamide]",< 0.01
16,"CC1(C)CCC(CN2CCN(c3ccc(C(=O)NS(=O)(=O)c4ccc(N[C@@H]5CCN(CC#N)C5)c([N+](=O)[O-])c4)c(Oc4cnc5[nH]ccc5c4)c3)CC2)=C(c2ccc(Cl)cc2)C1 [Compound 262, 4-(4-{[2-(4-chlorophenyl)-4,4-dimethylcyclohex-1-en-1-yl]methyl}piperazin-1-yl)-N-[(4-{[(3R)-1-(cyanomethyl)pyrrolidin-3-yl]amino}-3-nitrophenyl)sulfonyl]-2-(1H-pyrrolo[2,3-b]pyridin-5-yloxy)benzamide]",< 0.01
17,"O=C(NS(=O)(=O)c1ccc(NCC2CCOCC2)c([N+](=O)[O-])c1)c1ccc(N2CCN(CC3=C(c4ccc(Cl)cc4)CCC4(CCN(C(CF)CF)CC4)C3)CC2)cc1Oc1cnc2[nH]ccc2c1 [Compound 265, 4-(4-{[9-(4-chlorophenyl)-3-(1,3-difluoropropan-2-yl)-3-azaspiro[5.5]undec-8-en-8-yl]methyl}piperazin-1-yl)-N-({3-nitro-4-[(tetrahydro-2H-pyran-4-ylmethyl)amino]phenyl}sulfonyl)-2-(1H-pyrrolo[2,3-b]pyridin-5-yloxy)benzamide]",< 0.01
18,"CC(C)N1CCC2(CCC(c3ccc(Cl)cc3)=C(CN3CCN(c4ccc(C(=O)NS(=O)(=O)c5ccc(NCC6CCOCC6)c([N+](=O)[O-])c5)c(Oc5cnc6[nH]ccc6c5)c4)CC3)C2)CC1 [Compound 266, 4-(4-{[9-(4-chlorophenyl)-3-isopropyl-3-azaspiro[5.5]undec-8-en-8-yl]methyl}piperazin-1-yl)-N-({3-nitro-4-[(tetrahydro-2H-pyran-4-ylmethyl)amino]phenyl}sulfonyl)-2-(1H-pyrrolo[2,3-b]pyridin-5-yloxy)benzamide]",< 0.01
